The record followed here is patent US20240246967A1, “AXL COMPOUNDS” (ARCUS BIOSCIENCES, INC., priority 2021, published 2024).

The target in this experiment is T1, human TYRO3 (Homo sapiens, UniProt Q06418).
T1 construct: purchased Invitrogen
T1 sequence (Q06418 41-890): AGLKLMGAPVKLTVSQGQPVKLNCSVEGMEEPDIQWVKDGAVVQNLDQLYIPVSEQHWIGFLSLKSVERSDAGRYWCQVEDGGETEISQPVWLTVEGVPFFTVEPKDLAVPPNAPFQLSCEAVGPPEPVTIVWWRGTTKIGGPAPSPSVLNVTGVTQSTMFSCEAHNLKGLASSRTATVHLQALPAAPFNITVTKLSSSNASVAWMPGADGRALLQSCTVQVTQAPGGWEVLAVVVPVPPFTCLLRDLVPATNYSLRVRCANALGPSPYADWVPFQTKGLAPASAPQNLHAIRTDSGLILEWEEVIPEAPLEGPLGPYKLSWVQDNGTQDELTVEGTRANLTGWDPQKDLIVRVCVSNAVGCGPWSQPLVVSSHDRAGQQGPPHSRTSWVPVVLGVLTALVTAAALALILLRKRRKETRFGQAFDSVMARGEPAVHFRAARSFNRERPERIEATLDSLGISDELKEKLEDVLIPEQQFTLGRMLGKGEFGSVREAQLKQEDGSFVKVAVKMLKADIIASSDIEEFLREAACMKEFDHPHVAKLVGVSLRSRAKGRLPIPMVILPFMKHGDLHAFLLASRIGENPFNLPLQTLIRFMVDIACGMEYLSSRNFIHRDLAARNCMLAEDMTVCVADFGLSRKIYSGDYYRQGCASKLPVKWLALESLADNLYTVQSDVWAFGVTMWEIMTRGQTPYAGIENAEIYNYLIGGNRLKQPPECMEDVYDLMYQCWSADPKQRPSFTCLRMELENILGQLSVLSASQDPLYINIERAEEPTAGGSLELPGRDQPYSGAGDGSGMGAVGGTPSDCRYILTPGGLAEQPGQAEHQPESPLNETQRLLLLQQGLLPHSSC
As to the kind of experiment: HTRF KinEASE-TK biochemical potency assay, TYRO3. The note with it: 1 nM TYRO3, 700 μM ATP, 800 nM TK Substrate-biotin. A digest of the protocol:
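HTRF 665/620 nm read-out after streptavidin-XL665/anti-phosphotyrosine cryptate detection (1 h RT). Final reaction: 5 nM AXL or 1 nM TYRO3/MER, 800 nM TK substrate-biotin, 700 μM ATP, pH 7.4 HEPES buffer, 1% DMSO, 2 h RT, after 1 h enzyme–compound preincubation.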

`C[C@@H]1CCCN1C1(C)CCc2ccc(-c3cnc4[nH]nc(-c5ccc(C(=O)N[C@H]6CCOC6)cc5)c4c3)cc2CC1` (stereo partly drawn) [Example 117, 4-(5-{7-Methyl-7-[(2R)-2-methylpyrrolidin-1-yl]-6,7,8,9-tetrahydro-5H-benzo[7]annulen-2-yl}-1H-pyrazolo[3,4-b]pyridin-3-yl)-N-[(3S)-oxolan-3-yl]benzamide] showed an IC50 of over 1 µM.
